Columns and labels:
Assay type in all cases: biochemical
panel of kinases = target: T1, panel of kinases (Homo sapiens, UniProt P51813); assay: Inhibition of a panel of kinases (in vitro HotSpot kinase assay, 33P-ATP, 1 μM ATP), other kinases; settings: BMX wild-type, read-out: BMX-WT IC50
T1 sequence (P51813 1-675): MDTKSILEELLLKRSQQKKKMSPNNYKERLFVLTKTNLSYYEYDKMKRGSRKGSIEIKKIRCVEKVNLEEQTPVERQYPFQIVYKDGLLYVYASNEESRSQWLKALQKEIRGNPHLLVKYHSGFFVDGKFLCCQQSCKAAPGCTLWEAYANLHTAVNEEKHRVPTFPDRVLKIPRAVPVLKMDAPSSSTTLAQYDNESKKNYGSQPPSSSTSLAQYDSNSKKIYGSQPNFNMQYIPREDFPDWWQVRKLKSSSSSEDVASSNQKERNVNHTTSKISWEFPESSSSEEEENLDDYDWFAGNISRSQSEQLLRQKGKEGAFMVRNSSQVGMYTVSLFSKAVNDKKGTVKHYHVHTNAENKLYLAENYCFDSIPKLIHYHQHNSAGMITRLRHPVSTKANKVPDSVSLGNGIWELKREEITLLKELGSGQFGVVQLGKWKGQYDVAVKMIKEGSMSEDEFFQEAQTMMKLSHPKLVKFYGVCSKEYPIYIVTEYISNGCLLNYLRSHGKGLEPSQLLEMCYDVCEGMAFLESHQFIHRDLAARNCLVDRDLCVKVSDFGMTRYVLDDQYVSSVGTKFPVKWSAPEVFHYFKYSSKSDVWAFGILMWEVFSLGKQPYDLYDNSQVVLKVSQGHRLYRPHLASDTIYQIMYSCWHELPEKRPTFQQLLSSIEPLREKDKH
Method in brief: (§1)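 Radiometric read-out: 33P transfer to a suitable substrate by each purified enzyme, ATP at 1 μM. Values are degree of inhibition.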

Btk = target: T2, Btk (Homo sapiens, UniProt Q06187); assay: Btk in vitro inhibitory activity (one of Method A TR-FRET, Method B electrophoretic mobility shift, Method C radiometric filter binding); settings: wild-type Btk; read-out: Btk-WT IC50
T2 construct: purified from insect cells as a full-length construct containing a N-terminal 6X-His tag; His6 (N); made in house; host or cells: insect cells (Method C)
T2 sequence (Q06187 whole entry): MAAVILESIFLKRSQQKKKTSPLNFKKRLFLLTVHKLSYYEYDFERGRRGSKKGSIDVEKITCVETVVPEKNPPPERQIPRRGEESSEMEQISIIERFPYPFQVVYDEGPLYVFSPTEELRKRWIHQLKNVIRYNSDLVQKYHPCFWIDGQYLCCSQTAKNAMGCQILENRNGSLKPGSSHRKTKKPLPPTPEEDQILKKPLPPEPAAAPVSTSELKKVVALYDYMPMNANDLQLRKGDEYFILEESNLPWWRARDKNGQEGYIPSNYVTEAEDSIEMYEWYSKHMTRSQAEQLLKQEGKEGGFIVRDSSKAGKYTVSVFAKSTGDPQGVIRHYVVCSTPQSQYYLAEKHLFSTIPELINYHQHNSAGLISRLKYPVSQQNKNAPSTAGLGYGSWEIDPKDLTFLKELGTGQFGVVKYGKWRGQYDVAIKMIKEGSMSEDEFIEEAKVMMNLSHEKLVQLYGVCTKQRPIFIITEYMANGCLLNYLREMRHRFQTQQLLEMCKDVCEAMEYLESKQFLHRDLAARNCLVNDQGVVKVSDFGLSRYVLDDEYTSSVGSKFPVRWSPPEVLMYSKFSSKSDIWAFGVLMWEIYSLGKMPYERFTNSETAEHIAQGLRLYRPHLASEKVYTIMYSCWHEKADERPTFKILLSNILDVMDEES
Method in brief: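 Three alternative formats were used. A radiometric filter-binding read used 8 nM full-length His-BTK with 0.2 mg/mL poly(Glu-Tyr) 4:1 (C); microfluidic separation of 1 μM FAM-peptide by 1 nM BTK gave IC50 from 12-point curves (B); TR-FRET at Km ATP, 0.5 nM Btk, gave Ki(app)-derived IC50 (A).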

TEC = target: T3, TEC (Homo sapiens, UniProt P42680); assay: Inhibition of a panel of kinases (in vitro HotSpot kinase assay, 33P-ATP, 1 μM ATP); settings: for IC50: HotSpot kinase assay, 1 μM ATP; for TEC/Btk: ratio of TEC IC50 to Btk IC50 (selectivity)
T3 sequence (P42680 1-631): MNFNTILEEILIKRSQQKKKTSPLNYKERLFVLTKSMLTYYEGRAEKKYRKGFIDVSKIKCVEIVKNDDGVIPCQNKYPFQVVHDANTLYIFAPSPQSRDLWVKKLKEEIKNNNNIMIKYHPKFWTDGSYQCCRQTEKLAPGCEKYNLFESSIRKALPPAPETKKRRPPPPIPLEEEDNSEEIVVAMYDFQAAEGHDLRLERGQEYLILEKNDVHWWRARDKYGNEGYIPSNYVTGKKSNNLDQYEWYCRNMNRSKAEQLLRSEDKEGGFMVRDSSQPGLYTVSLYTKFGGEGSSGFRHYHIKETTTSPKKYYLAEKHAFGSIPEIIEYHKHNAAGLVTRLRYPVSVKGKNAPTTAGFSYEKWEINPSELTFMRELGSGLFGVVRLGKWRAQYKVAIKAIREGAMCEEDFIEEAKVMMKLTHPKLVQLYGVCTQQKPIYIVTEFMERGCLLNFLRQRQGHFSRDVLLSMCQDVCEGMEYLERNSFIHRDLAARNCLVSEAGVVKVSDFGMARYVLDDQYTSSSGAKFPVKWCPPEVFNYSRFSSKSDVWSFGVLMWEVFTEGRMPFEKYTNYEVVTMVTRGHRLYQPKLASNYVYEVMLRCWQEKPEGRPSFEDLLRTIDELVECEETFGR
Method in brief: as §1

SMILES | IC50 (panel of kinases) [nM] | IC50 (Btk) [nM] | IC50 (TEC) [nM] | TEC/Btk (TEC)
CC(C)c1noc(C(=O)NCc2ccc(-c3ccnc4[nH]nc(N5CC[C@@H](N)C5)c34)cc2F)n1 [Example 181, N-[(4-{3-[(3R)-3-aminopyrrolidin-1-yl]-1H-pyrazolo[3,4-b]pyridin-4-yl}-2-fluorophenyl)methyl]-3-(propan-2-yl)-1,2,4-oxadiazole-5-carboxamide] | 761 | 6.04 | 1000 | 166
CC(C)c1cc(C(=O)NCc2ccc(-c3ccnc4[nH]nc(N5CC[C@@H](N)C5)c34)cc2F)on1 [Example 182, N-[(4-{3-[(3R)-3-aminopyrrolidin-1-yl]-1H-pyrazolo[3,4-b]pyridin-4-yl}-2-fluorophenyl)methyl]-3-(propan-2-yl)-1,2-oxazole-5-carboxamide] | 1320 | 14.5 | 2610 | 180
C=CC(=O)N[C@@H]1CCN(c2n[nH]c3nccc(-c4ccc(CNC(=O)c5cc(C(C)C)no5)c(F)c4)c23)C1 [Example 184, N-{[2-fluoro-4-(3-{(3R)-3-[(prop-2-enoyl)amino]pyrrolidin-1-yl}-1H-pyrazolo[3,4-b]pyridin-4-yl)phenyl]methyl}-3-(propan-2-yl)-1,2-oxazole-5-carboxamide] | 30.7 | 0.0776 | 33.4 | 430
CC(=O)N[C@@H]1CCN(c2n[nH]c3nccc(-c4ccc(CNC(=O)c5cc(C(C)C)no5)c(F)c4)c23)C1 [Example 185, N-[(4-{3-[(3R)-3-acetamidopyrrolidin-1-yl]-1H-pyrazolo[3,4-b]pyridin-4-yl}-2-fluorophenyl)methyl]-3-(propan-2-yl)-1,2-oxazole-5-carboxamide] | 1560 | 7.43 | 2240 | 301
C[C@@H](NC(=O)c1nc(C(C)(C)C)no1)c1ccc(-c2ccnc3[nH]nc(N4CCC(N)CC4)c23)cc1F [Example 188, N-[(1R)-1-{4-[3-(4-aminopiperidin-1-yl)-1H-pyrazolo[3,4-b]pyridin-4-yl]-2-fluorophenyl}ethyl]-3-tert-butyl-1,2,4-oxadiazole-5-carboxamide] | 1520 | 0.267 | 802 | 3004
C[C@@H](NC(=O)c1noc(C(C)(C)C)n1)c1ccc(-c2ccnc3[nH]nc(N[C@@H]4CC[C@H](C)N(C(=O)N(C)C)C4)c23)cc1F [Example 191, (2S,5R)-5-{[4-(4-{(1R)-1-[(5-tert-butyl-1,2,4-oxadiazole-3-carbonyl)amino]ethyl}-3-fluorophenyl)-1H-pyrazolo[3,4-b]pyridin-3-yl]amino}-N,N,2-trimethylpiperidine-1-carboxamide] | 310 | 0.329 | 340 | 1033
C[C@@H](NC(=O)c1cc(C(C)(C)O)on1)c1ccc(-c2ccnc3[nH]nc(N[C@@H]4CC[C@H](C)N(C(=O)N(C)C)C4)c23)cc1F [Example 192, (2S,5R)-5-[(4-{3-fluoro-4-[(1R)-1-{[5-(2-hydroxypropan-2-yl)-1,2-oxazole-3-carbonyl]amino}ethyl]phenyl}-1H-pyrazolo[3,4-b]pyridin-3-yl)amino]-N,N,2-trimethylpiperidine-1-carboxamide] | 3130 | 28.6 | 3010 | 105
C[C@@H](NC(=O)c1nc(C(C)(C)C)no1)c1ccc(-c2ccnc3[nH]nc(N[C@@H]4CC[C@H](C)N(C(=O)N(C)C)C4)c23)cc1F [Example 193, (2S,5R)-5-{[4-(4-{(1R)-1-[(3-tert-butyl-1,2,4-oxadiazole-5-carbonyl)amino]ethyl}-3-fluorophenyl)-1H-pyrazolo[3,4-b]pyridin-3-yl]amino}-N,N,2-trimethylpiperidine-1-carboxamide] | 1040 | 0.355 | 381 | 1073

Reference: US20180194762A1 (Pharmacyclics LLC, priority 2017, published 2018)
